Data as given in PMC6409085, “Three odorant-binding proteins are involved in the behavioral response of Sogatella furcifera to rice plant volatiles” (PeerJ, 2019).
Several values for one entry are separate records, joined by “and”; a condition that tells them apart may be missing. Identical values can stand only once.

Experiments:
SfurOBP1 = SfurOBP1 (Sogatella furcifera, UniProt V5T8N5); assay: biochemical; type: binding; conditions: for Fluorescence competitive binding assay, fluorescence intensity: OBP1, three replicate columns
Method in brief: (§1)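 First, 2.0 µM protein in 50 mM Tris-HCl (pH 7.4) was titrated with 1-NPN to obtain K1-NPN. Then odorants (2–20 µM final) competed against 2.0 µM 1-NPN, with fluorescence (ex 337 nm) recorded after 2 min. Ki was computed from IC50 via Ki = IC50/(1 + [1-NPN]/K1-NPN).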

SfurOBP2 = SfurOBP2 (Sogatella furcifera, UniProt V5T759); assay: biochemical; type: binding
Method in brief: as §1

SfurOBP3 = SfurOBP3 (Sogatella furcifera, UniProt V5T818); assay: biochemical; type: binding; conditions: for Fluorescence competitive binding assay, fluorescence intensity: OBP3, three replicate columns
Method in brief: as §1

SfurOBP11 = SfurOBP11 (Sogatella furcifera, UniProt V5T6E3); assay: biochemical; type: binding
Method in brief: as §1

S. furcifera adults = assay: Y-tube olfactometer behavioral trials; type: in vivo, Sogatella furcifera; conditions: odorant 50 µL/L vs hexane; adults
Method in brief: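 Single S. furcifera adults (2 days post-emergence, starved 0.5 h) chose between odorant (100 µL of 50 µL/L on filter paper) and hexane control in a glass Y-tube, charcoal-filtered humidified air 300 mL/min per arm, 25 ± 1 °C, 50% RH. Choice scored if insect passed half an arm and stayed >1 min within 10 min; 45 insects per compound, chi-squared test.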

Chain of SfurOBP3 (V5T818 entry or part of it): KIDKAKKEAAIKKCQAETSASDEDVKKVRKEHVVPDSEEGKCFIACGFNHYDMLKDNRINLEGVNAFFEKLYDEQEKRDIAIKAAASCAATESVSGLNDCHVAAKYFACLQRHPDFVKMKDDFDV
Chain of SfurOBP1 (V5T8N5 entry or part of it): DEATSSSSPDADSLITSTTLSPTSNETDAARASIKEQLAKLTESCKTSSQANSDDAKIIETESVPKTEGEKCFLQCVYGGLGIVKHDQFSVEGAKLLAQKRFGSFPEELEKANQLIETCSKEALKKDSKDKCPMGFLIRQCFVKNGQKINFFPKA
Chain of SfurOBP11 (V5T6E3 entry or part of it): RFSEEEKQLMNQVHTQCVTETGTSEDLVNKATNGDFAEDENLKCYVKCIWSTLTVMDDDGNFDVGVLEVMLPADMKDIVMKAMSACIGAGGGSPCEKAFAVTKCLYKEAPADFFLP
Chain of SfurOBP2 (V5T759 entry or part of it): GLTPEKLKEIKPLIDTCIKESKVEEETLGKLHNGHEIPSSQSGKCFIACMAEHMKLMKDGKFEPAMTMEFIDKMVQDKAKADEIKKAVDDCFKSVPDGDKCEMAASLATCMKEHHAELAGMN

## COC(=O)c1ccccc1 [benzoic acid methylester]
SfurOBP1
  IC50: > 20 µM
SfurOBP1; ligand concentration 2 (μM)
  Fluorescence competitive binding assay, fluorescence intensity: 5064 and 4951 and 5158
SfurOBP1; ligand concentration 4 (μM)
  Fluorescence competitive binding assay, fluorescence intensity: 5979 and 6427 and 5531
SfurOBP1; ligand concentration 6 (μM)
  Fluorescence competitive binding assay, fluorescence intensity: 9023 and 8678 and 7700
SfurOBP1; ligand concentration 8 (μM)
  Fluorescence competitive binding assay, fluorescence intensity: 8709 and 6440 and 6910
SfurOBP1; ligand concentration 10 (μM)
  Fluorescence competitive binding assay, fluorescence intensity: 7708 and 6333 and 7083
SfurOBP1; ligand concentration 12 (μM)
  Fluorescence competitive binding assay, fluorescence intensity: 5895 and 6787 and 5523
SfurOBP1; ligand concentration 14 (μM)
  Fluorescence competitive binding assay, fluorescence intensity: 8915 and 6017 and 4981
SfurOBP1; ligand concentration 16 (μM)
  Fluorescence competitive binding assay, fluorescence intensity: 7008 and 5157 and 5392
SfurOBP1; ligand concentration 18 (μM)
  Fluorescence competitive binding assay, fluorescence intensity: 7131 and 8076 and 6232
SfurOBP1; ligand concentration 20 (μM)
  Fluorescence competitive binding assay, fluorescence intensity: 6422 and 6546 and 6873
SfurOBP2
  IC50: > 20 µM
SfurOBP2; ligand concentration 2 (unit not given), replicate column 1 of 3
  Fluorescence competitive binding assay, OBP2 (raw fluorescence reading): 20302
SfurOBP2; ligand concentration 2 (unit not given), replicate column 2 of 3
  Fluorescence competitive binding assay, OBP2 (raw fluorescence reading): 19349
SfurOBP2; ligand concentration 2 (unit not given), replicate column 3 of 3
  Fluorescence competitive binding assay, OBP2 (raw fluorescence reading): 19856
SfurOBP2; ligand concentration 4 (unit not given), replicate column 1 of 3
  Fluorescence competitive binding assay, OBP2 (raw fluorescence reading): 20922
SfurOBP2; ligand concentration 4 (unit not given), replicate column 2 of 3
  Fluorescence competitive binding assay, OBP2 (raw fluorescence reading): 22649
SfurOBP2; ligand concentration 4 (unit not given), replicate column 3 of 3
  Fluorescence competitive binding assay, OBP2 (raw fluorescence reading): 23660
SfurOBP2; ligand concentration 6 (unit not given), replicate column 1 of 3
  Fluorescence competitive binding assay, OBP2 (raw fluorescence reading): 19982
SfurOBP2; ligand concentration 6 (unit not given), replicate column 2 of 3
  Fluorescence competitive binding assay, OBP2 (raw fluorescence reading): 19598
SfurOBP2; ligand concentration 6 (unit not given), replicate column 3 of 3
  Fluorescence competitive binding assay, OBP2 (raw fluorescence reading): 20363
SfurOBP2; ligand concentration 8 (unit not given), replicate column 1 of 3
  Fluorescence competitive binding assay, OBP2 (raw fluorescence reading): 18016
SfurOBP2; ligand concentration 8 (unit not given), replicate column 2 of 3
  Fluorescence competitive binding assay, OBP2 (raw fluorescence reading): 17876
SfurOBP2; ligand concentration 8 (unit not given), replicate column 3 of 3
  Fluorescence competitive binding assay, OBP2 (raw fluorescence reading): 18155
SfurOBP2; ligand concentration 10 (unit not given), replicate column 1 of 3
  Fluorescence competitive binding assay, OBP2 (raw fluorescence reading): 17866
SfurOBP2; ligand concentration 10 (unit not given), replicate column 2 of 3
  Fluorescence competitive binding assay, OBP2 (raw fluorescence reading): 16967
SfurOBP2; ligand concentration 10 (unit not given), replicate column 3 of 3
  Fluorescence competitive binding assay, OBP2 (raw fluorescence reading): 17417
SfurOBP2; ligand concentration 12 (unit not given), replicate column 1 of 3
  Fluorescence competitive binding assay, OBP2 (raw fluorescence reading): 14659
SfurOBP2; ligand concentration 12 (unit not given), replicate column 2 of 3
  Fluorescence competitive binding assay, OBP2 (raw fluorescence reading): 16003
SfurOBP2; ligand concentration 12 (unit not given), replicate column 3 of 3
  Fluorescence competitive binding assay, OBP2 (raw fluorescence reading): 15331
SfurOBP2; ligand concentration 14 (unit not given), replicate column 1 of 3
  Fluorescence competitive binding assay, OBP2 (raw fluorescence reading): 15808
SfurOBP2; ligand concentration 14 (unit not given), replicate column 2 of 3
  Fluorescence competitive binding assay, OBP2 (raw fluorescence reading): 14578
SfurOBP2; ligand concentration 14 (unit not given), replicate column 3 of 3
  Fluorescence competitive binding assay, OBP2 (raw fluorescence reading): 16066
SfurOBP2; ligand concentration 16 (unit not given), replicate column 1 of 3
  Fluorescence competitive binding assay, OBP2 (raw fluorescence reading): 13829
SfurOBP2; ligand concentration 16 (unit not given), replicate column 2 of 3
  Fluorescence competitive binding assay, OBP2 (raw fluorescence reading): 13659
SfurOBP2; ligand concentration 16 (unit not given), replicate column 3 of 3
  Fluorescence competitive binding assay, OBP2 (raw fluorescence reading): 13740
SfurOBP2; ligand concentration 18 (unit not given), replicate column 1 of 3
  Fluorescence competitive binding assay, OBP2 (raw fluorescence reading): 13696
SfurOBP2; ligand concentration 18 (unit not given), replicate column 2 of 3
  Fluorescence competitive binding assay, OBP2 (raw fluorescence reading): 13929
SfurOBP2; ligand concentration 18 (unit not given), replicate column 3 of 3
  Fluorescence competitive binding assay, OBP2 (raw fluorescence reading): 14161
SfurOBP2; ligand concentration 20 (unit not given), replicate column 1 of 3
  Fluorescence competitive binding assay, OBP2 (raw fluorescence reading): 14205
SfurOBP2; ligand concentration 20 (unit not given), replicate column 2 of 3
  Fluorescence competitive binding assay, OBP2 (raw fluorescence reading): 14645
SfurOBP2; ligand concentration 20 (unit not given), replicate column 3 of 3
  Fluorescence competitive binding assay, OBP2 (raw fluorescence reading): 13761
SfurOBP3
  IC50: > 20 µM
SfurOBP3; ligand concentration 2
  Fluorescence competitive binding assay, fluorescence intensity: 65046 and 56813 and 65508
SfurOBP3; ligand concentration 4
  Fluorescence competitive binding assay, fluorescence intensity: 67380 and 59779 and 65465
SfurOBP3; ligand concentration 6
  Fluorescence competitive binding assay, fluorescence intensity: 60647 and 61139 and 65169
SfurOBP3; ligand concentration 8
  Fluorescence competitive binding assay, fluorescence intensity: 62761 and 59088 and 65223
SfurOBP3; ligand concentration 10
  Fluorescence competitive binding assay, fluorescence intensity: 58066 and 60267 and 58488
SfurOBP3; ligand concentration 12
  Fluorescence competitive binding assay, fluorescence intensity: 53979 and 46844 and 52174
SfurOBP3; ligand concentration 14
  Fluorescence competitive binding assay, fluorescence intensity: 52567 and 46884 and 49119
SfurOBP3; ligand concentration 16
  Fluorescence competitive binding assay, fluorescence intensity: 43090 and 45767 and 42573
SfurOBP3; ligand concentration 18
  Fluorescence competitive binding assay, fluorescence intensity: 48410 and 52387 and 52599
SfurOBP3; ligand concentration 20
  Fluorescence competitive binding assay, fluorescence intensity: 47608 and 41929 and 45047
SfurOBP11
  IC50: > 20 µM
SfurOBP11; ligand concentration 2, replicate 1
  Fluorescence intensity, fluorescence competitive binding assay, OBP11: 27311
SfurOBP11; ligand concentration 2, replicate 2
  Fluorescence intensity, fluorescence competitive binding assay, OBP11: 29257
SfurOBP11; ligand concentration 2, replicate 3
  Fluorescence intensity, fluorescence competitive binding assay, OBP11: 28341
SfurOBP11; ligand concentration 4, replicate 1
  Fluorescence intensity, fluorescence competitive binding assay, OBP11: 28195
SfurOBP11; ligand concentration 4, replicate 2
  Fluorescence intensity, fluorescence competitive binding assay, OBP11: 27454
SfurOBP11; ligand concentration 4, replicate 3
  Fluorescence intensity, fluorescence competitive binding assay, OBP11: 28935
SfurOBP11; ligand concentration 6, replicate 1
  Fluorescence intensity, fluorescence competitive binding assay, OBP11: 25204
SfurOBP11; ligand concentration 6, replicate 2
  Fluorescence intensity, fluorescence competitive binding assay, OBP11: 26496
SfurOBP11; ligand concentration 6, replicate 3
  Fluorescence intensity, fluorescence competitive binding assay, OBP11: 27787
SfurOBP11; ligand concentration 8, replicate 1
  Fluorescence intensity, fluorescence competitive binding assay, OBP11: 24731
SfurOBP11; ligand concentration 8, replicate 2
  Fluorescence intensity, fluorescence competitive binding assay, OBP11: 24972
SfurOBP11; ligand concentration 8, replicate 3
  Fluorescence intensity, fluorescence competitive binding assay, OBP11: 24489
SfurOBP11; ligand concentration 10, replicate 1
  Fluorescence intensity, fluorescence competitive binding assay, OBP11: 24285
SfurOBP11; ligand concentration 10, replicate 2
  Fluorescence intensity, fluorescence competitive binding assay, OBP11: 24217
SfurOBP11; ligand concentration 10, replicate 3
  Fluorescence intensity, fluorescence competitive binding assay, OBP11: 24352
SfurOBP11; ligand concentration 12, replicate 1
  Fluorescence intensity, fluorescence competitive binding assay, OBP11: 23537
SfurOBP11; ligand concentration 12, replicate 2
  Fluorescence intensity, fluorescence competitive binding assay, OBP11: 23314
SfurOBP11; ligand concentration 12, replicate 3
  Fluorescence intensity, fluorescence competitive binding assay, OBP11: 23760
SfurOBP11; ligand concentration 14, replicate 1
  Fluorescence intensity, fluorescence competitive binding assay, OBP11: 19900
SfurOBP11; ligand concentration 14, replicate 2
  Fluorescence intensity, fluorescence competitive binding assay, OBP11: 22587
SfurOBP11; ligand concentration 14, replicate 3
  Fluorescence intensity, fluorescence competitive binding assay, OBP11: 21306
SfurOBP11; ligand concentration 16, replicate 1
  Fluorescence intensity, fluorescence competitive binding assay, OBP11: 18401
SfurOBP11; ligand concentration 16, replicate 2
  Fluorescence intensity, fluorescence competitive binding assay, OBP11: 18544
SfurOBP11; ligand concentration 16, replicate 3
  Fluorescence intensity, fluorescence competitive binding assay, OBP11: 17724
SfurOBP11; ligand concentration 18, replicate 1
  Fluorescence intensity, fluorescence competitive binding assay, OBP11: 22003
SfurOBP11; ligand concentration 18, replicate 2
  Fluorescence intensity, fluorescence competitive binding assay, OBP11: 20975
SfurOBP11; ligand concentration 18, replicate 3
  Fluorescence intensity, fluorescence competitive binding assay, OBP11: 22765
SfurOBP11; ligand concentration 20, replicate 1
  Fluorescence intensity, fluorescence competitive binding assay, OBP11: 21640
SfurOBP11; ligand concentration 20, replicate 2
  Fluorescence intensity, fluorescence competitive binding assay, OBP11: 22200
SfurOBP11; ligand concentration 20, replicate 3
  Fluorescence intensity, fluorescence competitive binding assay, OBP11: 21920
S. furcifera adults
  number of insects choosing hexane arm: 10
  number of insects choosing volatilies arm: 9
  number of insects failed (no choice): 20
